pIC50: −log10 of the molar value.
Target: SOS1:KRAS (G12C) interaction (Homo sapiens (Human), UniProt Q07889)
Experiment: SOS1 KRas(G12C) FRET Assay
Assay type: binding
Conditions: 0.5 nM His10-SOS1 (res. 564-1049), 2.5 nM GST-KRAS G12C (res. 1-169), 2 hrs at RT
Method in brief: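 GST-KRAS G12C (res. 1-169) at 2.5 nM and His10-SOS1 (res. 564-1049) at 0.5 nM, final, in PBS with 0.1% BSA, 5 mM MgCl2, 100 mM KF, 5 mM DTT and 0.5% DMSO. After 2 h at RT, FRET read at 665/615 nm and normalized to DMSO and no-SOS1 controls. IC50 by non-linear regression.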

SOS1:KRAS (G12C) interaction, sequence (Q07889 564-1049, stated change not applied): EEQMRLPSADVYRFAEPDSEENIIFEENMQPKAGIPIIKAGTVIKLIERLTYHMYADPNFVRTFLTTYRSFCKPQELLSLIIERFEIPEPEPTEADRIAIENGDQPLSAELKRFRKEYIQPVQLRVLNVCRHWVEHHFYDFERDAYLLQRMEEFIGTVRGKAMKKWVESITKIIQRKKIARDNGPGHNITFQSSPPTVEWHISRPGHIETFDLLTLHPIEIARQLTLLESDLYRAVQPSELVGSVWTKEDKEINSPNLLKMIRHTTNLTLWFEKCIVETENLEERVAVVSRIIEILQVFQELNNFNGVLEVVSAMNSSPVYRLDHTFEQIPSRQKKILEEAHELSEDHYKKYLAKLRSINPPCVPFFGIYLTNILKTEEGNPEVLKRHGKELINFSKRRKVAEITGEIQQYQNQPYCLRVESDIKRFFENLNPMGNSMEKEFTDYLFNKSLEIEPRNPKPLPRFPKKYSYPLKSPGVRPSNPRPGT

## Cc1c([C@@H](C)NC(=O)c2cn(C3CCOCC3)c(=O)cc2N[C@@H]2CCN(C)C3(CC3)C2)cccc1C(F)(F)F (single isomer, unassigned) [Example 40]
  pIC50: 7.93

## C[C@@H](NC(=O)c1cn(C2CCC2)c(=O)cc1N[C@H]1[C@@H]2CC[C@H]1CN(C)C2)c1cccc(C(F)F)c1F (single isomer, unassigned) [Example 214]
  pIC50: 7.97

## C[C@H](NC(=O)c1cn(C2(C(F)F)CC2)c(=O)cc1N[C@H]1[C@@H]2CN(C)C[C@@H]21)c1cccc(C(F)(F)c2ccncc2)c1F [Example 175, N-((S)-1-(3-(difluoro(pyridin-4-yl)methyl)-2-fluorophenyl)ethyl)-1-(1-(difluoromethyl)cyclopropyl)-4-(((1R,5S,6s)-3-methyl-3-azabicyclo[3.1.0]hexan-6-yl)amino)-6-oxo-1,6-dihydropyridine-3-carboxamide]
  pIC50: 7.89

## C[C@@H](NC(=O)c1cn([C@@H]2CC23CC3)c(=O)cc1N[C@H]1[C@@H]2CN(C)C[C@@H]21)c1cccc(C(C)(F)F)c1F (single isomer, unassigned) [Example 254]
  pIC50: 7.89

## Cc1cc([C@@H](C)NC(=O)c2cn(C3(C(F)F)CC3)c(=O)cc2NC2CCN(C)CC2)cc(C(F)(F)F)n1 (single isomer, unassigned) [Example 171]
  pIC50: 5.90

## C[C@@H](NC(=O)c1cn(C2(C(F)F)CC2)c(=O)cc1NC1CCN(C2(C)CC2)CC1)c1cccc(C(F)F)c1F [Example 288, (R)-N-(1-(3-(difluoromethyl)-2-fluorophenyl)ethyl)-1-(1-(difluoromethyl)cyclopropyl)-4-((1-(1-methylcyclopropyl)piperidin-4-yl)amino)-6-oxo-1,6-dihydropyridine-3-carboxamide]
  pIC50: 7.63

## C[C@@H](NC(=O)c1cn(C2(C)CC(F)(F)C2)c(=O)cc1NC1CCN(C)CC1)c1cccc(C(F)F)c1F [Example 222, (R)-1-(3,3-difluoro-1-methylcyclobutyl)-N-(1-(3-(difluoromethyl)-2-fluorophenyl)ethyl)-4-((1-methylpiperidin-4-yl)amino)-6-oxo-1,6-dihydropyridine-3-carboxamide]
  pIC50: 7.56

## C[C@@H](NC(=O)c1cn(C2(C(F)F)CC2)c(=O)cc1N[C@H]1[C@@H]2C[C@H]1CN(C)C2)c1cccc(C(F)F)c1F (single isomer, unassigned) [Example 251]
  pIC50: 7.47

## C[C@@H](NC(=O)c1cn([C@@H]2CCOC[C@H]2F)c(=O)cc1N[C@H]1[C@@H]2C[C@H]1CN(C)C2)c1cccc(C(F)F)c1F [Example 243, N-((R)-1-(3-(difluoromethyl)-2-fluorophenyl)ethyl)-1-((3S,4R)-3-fluorotetrahydro-2H-pyran-4-yl)-4-(((1R,5Sx,6r)-3-methyl-3-azabicyclo[3.1.1]heptan-6-yl)amino)-6-oxo-1,6-dihydropyridine-3-carboxamide]
  pIC50: 8.20

## Cc1c([C@@H](C)NC(=O)c2cn(C3CCOCC3)c(=O)cc2NCCONC(=N)N)cccc1C(F)(F)F [Example 46, (R)-4-((2-(guanidinooxy)ethyl)amino)-N-(1-(2-methyl-3-(trifluoromethyl)phenyl)ethyl)-6-oxo-1-(tetrahydro-2H-pyran-4-yl)-1,6-dihydropyridine-3-carboxamide]
  pIC50: 7.74

## Cc1c(C#N)cccc1[C@@H](C)NC(=O)c1cn(C23CC(C2)C3)c(=O)cc1N[C@H]1[C@@H]2CN(C)C[C@@H]21 [Example 181, 1-(bicyclo[1.1.1]pentan-1-yl)-N-((R)-1-(3-cyano-2-methylphenyl)ethyl)-4-(((1R,5S,6s)-3-methyl-3-azabicyclo[3.1.0]hexan-6-yl)amino)-6-oxo-1,6-dihydropyridine-3-carboxamide]
  pIC50: 7.10

## Cc1c([C@@H](C)NC(=O)c2cn(C3CCOCC3)c(=O)cc2NC[C@H]2CC[C@H](N(C)C)CC2)cccc1C(F)(F)F [Example 301, 4-((((1r,4R)-4-(dimethylamino)cyclohexyl)methyl)amino)-N-((R)-1-(2-methyl-3-(trifluoromethyl)phenyl)ethyl)-6-oxo-1-(tetrahydro-2H-pyran-4-yl)-1,6-dihydropyridine-3-carboxamide]
  pIC50: 7.34

## CN1C[C@@H]2[C@H](C1)[C@H]2Nc1cc(=O)n(C2(C(F)F)CC2)cc1C(=O)N[C@@H](c1cccc(C(F)F)c1F)C(F)F [Example 158, N-((S)-1-(3-(difluoromethyl)-2-fluorophenyl)-2,2-difluoroethyl)-1-(1-(difluoromethyl)cyclopropyl)-4-(((1R,5S,6s)-3-methyl-3-azabicyclo[3.1.0]hexan-6-yl)amino)-6-oxo-1,6-dihydropyridine-3-carboxamide]
  pIC50: 7.09

## C[C@@H](NC(=O)c1cn(C2(C(F)F)CC2)c(=O)cc1NC1CCN(C2CC2)CC1)c1cccc(C(F)F)c1F [Example 62, (R)-4-((1-cyclopropylpiperidin-4-yl)amino)-N-(1-(3-(difluoromethyl)-2-fluorophenyl)ethyl)-1-(1-(difluoromethyl)cyclopropyl)-6-oxo-1,6-dihydropyridine-3-carboxamide]
  pIC50: 7.70

## C[C@@H](NC(=O)c1cn(C2CCOCC2)c(=O)cc1NC1CCN(C)CC1)c1cccc(C(F)F)c1F [Example 41, (R)-N-(1-(3-(difluoromethyl)-2-fluorophenyl)ethyl)-4-((1-methylpiperidin-4-yl)amino)-6-oxo-1-(tetrahydro-2H-pyran-4-yl)-1,6-dihydropyridine-3-carboxamide]
  pIC50: 8.11

## C[C@@H](NC(=O)c1cn(C2(C(F)F)CC2)c(=O)cc1N[C@H]1CCN2CCC[C@@H]2C1)c1cccc(C(F)F)c1F (single isomer, unassigned) [Example 304]
  pIC50: 7.59

## C[C@@H](NC(=O)c1cn([C@@]2(C)CCN(C(=O)C3(F)CC3)C2)c(=O)cc1NC1CCN(C)CC1)c1cccc(C(F)F)c1F [Example 268, N-((R)-1-(3-(difluoromethyl)-2-fluorophenyl)ethyl)-1x-((S)-1-(1-fluorocyclopropane-1-carbonyl)-3-methylpyrrolidin-3-yl)-4-((1-methylpiperidin-4-yl)amino)-6-oxo-1,6-dihydropyridine-3-carboxamide]
  pIC50: 7.48

## C[C@@H](NC(=O)c1cn(C2(C(F)F)CCC2)c(=O)cc1N[C@H]1[C@@H]2C[C@H]1CN(C)C2)c1cccc(C(F)F)c1F (single isomer, unassigned) [Example 253]
  pIC50: 7.37

## Cc1c([C@@H](C)NC(=O)c2cn(C3CCOCC3)c(=O)cc2NC2CCNC2)cccc1C(F)(F)F (stereo partly drawn) [Example 44, N-((R)-1-(2-methyl-3-(trifluoromethyl)phenyl)ethyl)-6-oxo-4-(pyrrolidin-3-ylamino)-1-(tetrahydro-2H-pyran-4-yl)-1,6-dihydropyridine-3-carboxamide]
  pIC50: 7.46

## Cc1c([C@@H](C)NC(=O)c2cn(C3CCOCC3)c(=O)cc2N[C@H]2CC[C@@]23CCCN(C)C3)cccc1C(F)(F)F (single isomer, unassigned) [Example 296]
  pIC50: 6.60

## C[C@@H](NC(=O)c1cn([C@H]2C[C@@H](C3CC3)C2)c(=O)cc1N[C@H]1[C@@H]2CN(C)C[C@@H]21)c1cccc(C(F)F)c1F (single isomer, unassigned) [Example 248]
  pIC50: 7.62

## C[C@@H](NC(=O)c1cn(C2(C(F)F)CC2)c(=O)cc1NC1CCN(C)C2(CC2)C1)c1cccc(C(F)F)c1F (stereo partly drawn) [Example 240, N-((R)-1-(3-(difluoromethyl)-2-fluorophenyl)ethyl)-1-(1-(difluoromethyl)cyclopropyl)-4-((4-methyl-4-azaspiro[2.5]octan-7-yl)amino)-6-oxo-1,6-dihydropyridine-3-carboxamide]
  pIC50: 7.87

## C[C@@H](NC(=O)c1cn(C23CC(C2)C3)c(=O)cc1N[C@H]1[C@@H]2CN(C)C[C@@H]21)c1cccc(C#N)c1F [Example 179, 1-(bicyclo[1.1.1]pentan-1-yl)-N-((R)-1-(3-cyano-2-fluorophenyl)ethyl)-4-(((1R,5S,6s)-3-methyl-3-azabicyclo[3.1.0]hexan-6-yl)amino)-6-oxo-1,6-dihydropyridine-3-carboxamide]
  pIC50: 7.15

## Cc1c([C@@H](C)NC(=O)c2cn(C3CCOCC3)c(=O)c(C)c2NC2CCN(C)CC2)cccc1C(F)(F)F [Example 19, (R)-5-methyl-N-(1-(2-methyl-3-(trifluoromethyl)phenyl)ethyl)-4-((1-methylpiperidin-4-yl)amino)-6-oxo-1-(tetrahydro-2H-pyran-4-yl)-1,6-dihydropyridine-3-carboxamide]
  pIC50: 6.46

## C[C@@H](NC(=O)c1cn([C@@H]2CCOC[C@H]2F)c(=O)cc1N[C@@H]1[C@@H]2C[C@H]1CN(C)C2)c1cccc(C(F)F)c1F [Example 244, N-((R)-1-(3-(difluoromethyl)-2-fluorophenyl)ethyl)-1-((3S,4R)-3-fluorotetrahydro-2H-pyran-4-yl)-4-(((1R5S,6s)-3-methyl-3-azabicyclo[3.1.1]heptan-6-yl)amino)-6-oxo-1,6-dihydropyridine-3-carboxamide]
  pIC50: 7.74

## C[C@@H](NC(=O)c1cn(C2(C(F)(F)F)CC2)c(=O)cc1NC1CCN(C)CC1)c1cccc(C(F)F)c1F [Example 75, (R)-N-(1-(3-(difluoromethyl)-2-fluorophenyl)ethyl)-4-((1-methylpiperidin-4-yl)amino)-6-oxo-1-(1-(trifluoromethyl)cyclopropyl)-1,6-dihydropyridine-3-carboxamide]
  pIC50: 7.81

## C[C@@H](NC(=O)c1cn(C2(C(F)F)CC2)c(=O)cc1N[C@H]1C[C@@H]2C[C@H]1CN2C)c1cccc(C(F)F)c1F (single isomer, unassigned) [Example 237]
  pIC50: 7.71

## C[C@@H]1C[C@@H]1n1cc(C(=O)N[C@H](C)c2cccc(C(F)F)c2F)c(N[C@H]2[C@@H]3CN(C)C[C@@H]32)cc1=O (single isomer, unassigned) [Example 273]
  pIC50: 7.80

## Cc1c([C@@H](C)NC(=O)c2cn(C3CCOCC3)c(=O)cc2N[C@@H]2C[C@@H]3CC[C@H]2N3C)cccc1C(F)(F)F (single isomer, unassigned) [Example 37]
  pIC50: 7.48
